Measured values reported in ChEMBL document CHEMBL4725496, “Escaping from Flatland: Antimalarial Activity of sp-Rich Bridged Pyrrolidine Derivatives” (ACS Med Chem Lett, 2020).

System: Plasmodium falciparum
Test: Antimalarial activity against chloroquine-sensitive Plasmodium falciparum 3D7 infected in human erythrocytes assessed as reduction in parasitemia incubated for 72 hrs by SYBR green dye based fluorescence assay
Format: functional, organism-based
Details: 3D7, Erythrocyte

Structure (SMILES) | IC50 [µM]
COc1ccc(NC(=O)OC(C)(C)C)c(C(=O)NCC23CC(CN2Cc2ccccc2)C3)c1 | 6.2
O=C(/C=C/c1cccc(F)c1)NCC12CC(CN1Cc1ccccc1)C2 | 22
O=C(NCC12CC(CN1Cc1ccccc1)C2)c1ccc(Cl)c(Br)c1 | 5.2
Cc1ccc(-c2cc(C(=O)NCC34CC(CN3Cc3ccccc3)C4)[nH]n2)o1 | 15
O=C(NCC12CC(CN1Cc1ccccc1)C2)c1ccc(-c2ccco2)cc1 | 9.4
O=C(NCC12CC(CN1Cc1ccccc1)C2)c1ccc(Br)s1 | 12.7
COc1cccc2c(C(=O)NCC34CC(CN3Cc3ccccc3)C4)c[nH]c12 | 19
COc1ccc(C2(C(=O)NCC34CC(CN3Cc3ccccc3)C4)CCCC2)cc1 | 9.6
O=C(NCC12CC(CN1Cc1ccccc1)C2)C1CC1c1cc(Cl)cc(Cl)c1 (configuration not stated) | 4.5
O=C(NCC12CC(CN1Cc1ccccc1)C2)c1ccc(Br)cc1Cl | 8.8
O=C(/C=C/c1ccc(F)cc1)NCC12CC(CN1Cc1ccccc1)C2 | 13
O=C(NCC12CC(CN1Cc1ccccc1)C2)c1ccc(C(F)(F)F)cc1Cl | 8.7
Cc1nn(-c2ccccc2)nc1C(=O)NCC12CC(CN1Cc1ccccc1)C2 | 14
COc1ccc(C(=O)NCC23CC(CN2Cc2ccccc2)C3)cc1Cl | 16
Cc1cc2[nH]c(C(=O)NCC34CC(CN3Cc3ccccc3)C4)cc2o1 | 11
O=C(NCC12CC(CN1Cc1ccccc1)C2)c1ccc2[nH]ccc2c1 | 17
CC(C)(C)OC(=O)Nc1ccccc1C(=O)NCC12CC(CN1Cc1ccccc1)C2 | 7.2
O=C(NCC12CC(CN1Cc1ccccc1)C2)c1c[nH]c2c(Cl)cccc12 | 5.1
COc1cc(C(=O)NCC23CC(CN2Cc2ccccc2)C3)ccc1Br | 5.7
O=C(NCC12CC(CN1Cc1ccccc1)C2)c1ccc(Cl)c(C(F)(F)F)c1 | 3.3
O=C(NCC12CC(CN1Cc1ccccc1)C2)c1ccc(-n2cccn2)cc1Cl | 19

Structure (SMILES) | IC50 [µM]
O=C(NCC12CC(CN1Cc1ccccc1)C2)c1ccc(Br)c(Cl)c1 | 3.6
O=C(NCC12CC(CN1Cc1ccccc1)C2)c1cc2cc(Br)ccc2o1 | 3.9
O=C(NCC12CC(CN1Cc1ccccc1)C2)c1ccc(OC(F)(F)F)cc1 | 12.7
O=C(NCC12CC(CN1Cc1ccccc1)C2)c1coc2ccccc12 | 15
O=C(/C=C/c1ccccc1Cl)NCC12CC(CN1Cc1ccccc1)C2 | 5.8
Cc1cc(C(=O)NCC23CC(CN2Cc2ccccc2)C3)ccc1Br | 9.4
COc1ccc2cc(C(=O)NCC34CC(CN3Cc3ccccc3)C4)ccc2c1 | 3.6
O=C(NCC12CC(CN1Cc1ccccc1)C2)c1cc2c(Br)cccc2[nH]1 | 1.6
O=C(/C=C/c1ccccc1F)NCC12CC(CN1Cc1ccccc1)C2 | 11
O=C(NCC12CC(CN1Cc1ccccc1)C2)c1ccc(OCc2ccccc2)cc1 | 6.2
CC(C)(C)c1cc(C(=O)NCC23CC(CN2Cc2ccccc2)C3)cc(C(C)(C)C)c1 | 2.6
O=C(NCC12CC(CN1Cc1ccccc1)C2)c1ccc2ccccc2c1 | 14
O=C(NCC12CC(CN1Cc1ccccc1)C2)c1cccc(Cl)c1 | 13
Cc1cc(C(=O)NCC23CC(CN2Cc2ccccc2)C3)no1 | 3.4
O=C(NCC12CC(CN1Cc1ccccc1)C2)c1cc(Br)c(Br)s1 | 3.7
O=C(NCC12CC(CN1Cc1ccccc1)C2)c1ccc2cccc(Br)c2n1 | 9
O=C(NCC12CC(CN1Cc1ccccc1)C2)c1cccc(OC(F)(F)F)c1 | 9.4
O=C(NCC12CC(CN1Cc1ccccc1)C2)c1cc(F)cc(C(F)(F)F)c1 | 8.9
O=C(Cc1cccc(C(F)(F)F)c1)NCC12CC(CN1Cc1ccccc1)C2 | 22
COc1cccc(C(=O)NCC23CC(CN2Cc2ccccc2)C3)c1C | 15
O=C(Cc1ccc(Cl)c(Cl)c1)NCC12CC(CN1Cc1ccccc1)C2 | 11

Structure (SMILES) | IC50 [µM]
C=Cc1ccc(C(=O)NCC23CC(CN2Cc2ccccc2)C3)cc1 | 8.5
O=C(NCC12CC(CN1Cc1ccccc1)C2)C1(c2ccc(Cl)cc2)CCC1 | 6.2
O=C(NCC12CC(CN1Cc1ccccc1)C2)c1cc(Br)cs1 | 22
O=C(NCC12CC(CN1Cc1ccccc1)C2)c1cc(F)c(Cl)c(F)c1 | 12
O=C(NCC12CC(CN1Cc1ccccc1)C2)c1ccc2[nH]nc(Br)c2c1 | 5.5
O=C(NCC12CC(CN1Cc1ccccc1)C2)c1ccc(F)c(Cl)c1 | 8.5
O=C(NCC12CC(CN1Cc1ccccc1)C2)c1ccc(F)c(Br)c1 | 12
Cc1ccc(Cl)cc1C(=O)NCC12CC(CN1Cc1ccccc1)C2 | 19
O=C(Cc1ccc(Br)c(F)c1)NCC12CC(CN1Cc1ccccc1)C2 | 24
CC(C)(C)OC(=O)N[C@H](C(=O)NCC12CC(CN1Cc1ccccc1)C2)C1CCCCC1 | 24
O=C(NCC12CC(CN1Cc1ccccc1)C2)c1cc(Cl)cc(C(F)(F)F)c1 | 1.3
O=C(NCC12CC(CN1Cc1ccccc1)C2)c1ccc(Cl)c(Cl)c1 | 5.1
O=C(NCC12CC(CN1Cc1ccccc1)C2)c1ccc(Br)c(F)c1 | 10
CSc1ccc(Cl)c(C(=O)NCC23CC(CN2Cc2ccccc2)C3)c1 | 18
Cn1ccc2ccc(C(=O)NCC34CC(CN3Cc3ccccc3)C4)cc21 | 7.1
O=C(NCC12CC(CN1Cc1ccccc1)C2)C1(c2ccc(Cl)cc2Cl)CC1 | 1.1
O=C(NCC12CC(CN1Cc1ccccc1)C2)c1cc(Br)cc(C(F)(F)F)c1 | 2.7
CCCCCCCCCC(=O)NCC12CC(CN1Cc1ccccc1)C2 | 7.4
O=C(CCCC1CCCCC1)NCC12CC(CN1Cc1ccccc1)C2 | 13

System: not listed separately
Test: Intrinsic clearance in rat hepatocytes at 1 uM incubated upto 90 mins measured per 10^6 cells by LC-MS/MS analysis
Format: ADME, cell-based, Hepatocyte
Details: 1.5 h, time 0-90 min

Structure (SMILES) | CLint [µL/min/1e6 cells]
O=C(NCC12CC(CN1Cc1ccccc1)C2)c1cc(Cl)cc(C(F)(F)F)c1 | 8

System: not listed separately
Test: Intrinsic clearance in human liver microsome at 1 uM measured upto 60 mins by LC-MS/MS analysis
Format: ADME
Details: microsomes, 1 h

Structure (SMILES) | CLint [µL/min/mg]
O=C(NCC12CC(CN1Cc1ccccc1)C2)c1cc(Cl)cc(C(F)(F)F)c1 | 27

System: not listed separately
Test: 1-Octanol/phosphate buffered-saline distribution coefficient, logD of compound in pH 7.4 at 75 uM measured after 2 hrs under shaking condition by LC-MS analysis
Format: physicochemical
Details: not given

Structure (SMILES) | logD at 2 h, 75 µM
O=C(NCC12CC(CN1Cc1ccccc1)C2)c1cc(Cl)cc(C(F)(F)F)c1 | 3.2

System: not listed separately
Test: Kinetic solubility of compound in PBS buffer measured after 2 hrs under shaking condition by UV spectroscopic analysis
Format: physicochemical
Details: read-out: Kinetic_solubility

Structure (SMILES) | solubility kinetic at 2 h [µM]
O=C(NCC12CC(CN1Cc1ccccc1)C2)c1cc(Cl)cc(C(F)(F)F)c1 | > 200

System: HepG2
Test: Cytotoxicity against human HepG2 cells incubated for 72 hrs by Cell Titer Glo assay
Format: cell-based
Details: HepG2, 72 h

Structure (SMILES) | IC50 [µM]
O=C(NCC12CC(CN1Cc1ccccc1)C2)c1cc(Cl)cc(C(F)(F)F)c1 | > 17

System: Plasmodium falciparum
Test: Antimalarial activity against […] Plasmodium falciparum 3D7 by LDH assay
Format: functional, organism-based
Details: not given

Structure (SMILES) | IC50 [µM]
O=C(NCC12CC(CN1Cc1ccccc1)C2)c1cc(Cl)cc(C(F)(F)F)c1 | 4.3

System: Plasmodium falciparum
Test: Antimalarial activity against chloroquine-sensitive Plasmodium falciparum 3D7 infected in human erythrocytes assessed as reduction in parasitemia at 10 uM incubated for 72 hrs by SYBR green dye based fluorescence assay relative to control
Format: functional
Details: 3D7, Erythrocyte

Structure (SMILES) | inhibition at 10 µM [%]
O=C(Cc1cc(F)ccc1F)NCC12CC(CN1Cc1ccccc1)C2 | -8.2
O=C(NCC12CC(CN1Cc1ccccc1)C2)c1ccccc1Cl | -7.9
O=C(Cc1ccc(F)c(Br)c1)NCC12CC(CN1Cc1ccccc1)C2 | 40
O=C(NCC12CC(CN1Cc1ccccc1)C2)c1cccc(Cl)c1Cl | -8.2
O=C(NCC12CC(CN1Cc1ccccc1)C2)c1cccc(Br)c1 | 35
O=C(NCC12CC(CN1Cc1ccccc1)C2)c1cc(F)ccc1F | 67
Cc1cccc(C(=O)NCC23CC(CN2Cc2ccccc2)C3)c1 | 7.6
O=C(NCC12CC(CN1Cc1ccccc1)C2)c1ccccc1 | -20
O=C(NCC12CC(CN1Cc1ccccc1)C2)c1ccc(Cl)cc1 | 38

System: Plasmodium falciparum
Test: Antimalarial activity against multi-drug-resistant Plasmodium falciparum Dd2 by LDH assay
Format: functional, organism-based
Details: not given

Structure (SMILES) | IC50 [µM]
O=C(NCC12CC(CN1Cc1ccccc1)C2)c1cc(Cl)cc(C(F)(F)F)c1 | 5.4
